Results on 1 compound are retold here after PMC11576293, “New series of 4,6-diaryl pyrimidines: facile synthesis and antiproliferative activity as dual EGFR/VEGFR-2 inhibitors” (Frontiers in Chemistry, 2024).

The term inhibition denotes the change of the read-out against control, counted positive when it falls.

A value given as a limit tells only on which side of the number the result lay.

One test has as its system MDA-MB231/ATCC. The experiment in a line: NCI-60 single-dose screen. In kind it is cell-based. As to conditions: Homo sapiens, MDA-MB-231, single dose 10 µM, '-' = no inhibition, read-out: % Growth Inhibition. The procedure, abridged:
(§1)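 Single concentration (10 μM) per compound, assayed by the NCI DTP against its 60-line panel covering leukemia, lung, colon, CNS, melanoma, ovarian, renal, prostate and breast cancers.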
Consider `COc1ccc(-c2cc(-c3ccc(Cl)cc3)nc(SCc3ccccc3)n2)cc1` [Compound 14, 2-(Benzylthio)-4-(4-chlorophenyl)-6-(4-methoxyphenyl)pyrimidine], for which the inhibition at 10 µM was less than 0%.

A further test relates to SR. The experiment in a line: NCI-60 single-dose screen. In kind it is cell-based. To be noted: Homo sapiens, single dose 10 µM, '-' = no inhibition, read-out: % Growth Inhibition. The procedure, abridged: as §1
Take `COc1ccc(-c2cc(-c3ccc(Cl)cc3)nc(SCc3ccccc3)n2)cc1` [Compound 14, 2-(Benzylthio)-4-(4-chlorophenyl)-6-(4-methoxyphenyl)pyrimidine]: the inhibition at 10 µM was 10.2%.

The next test has as its system K-562. The experiment in a line: NCI-60 single-dose screen. As to conditions: Homo sapiens, K562, single dose 10 µM, '-' = no inhibition, read-out: % Growth Inhibition. The class given is cell-based. Summed up: as §1
Regarding `COc1ccc(-c2cc(-c3ccc(Cl)cc3)nc(SCc3ccccc3)n2)cc1` [Compound 14, 2-(Benzylthio)-4-(4-chlorophenyl)-6-(4-methoxyphenyl)pyrimidine], the inhibition at 10 µM was determined as 11.7%.

A further test relates to OVCAR-4. The experiment in a line: NCI-60 single-dose screen. To be noted: Homo sapiens, single dose 10 µM, '-' = no inhibition, read-out: % Growth Inhibition. In kind it is cell-based. The procedure, abridged: as §1
For `COc1ccc(-c2cc(-c3ccc(Cl)cc3)nc(SCc3ccccc3)n2)cc1` [Compound 14, 2-(Benzylthio)-4-(4-chlorophenyl)-6-(4-methoxyphenyl)pyrimidine], the inhibition at 10 µM was less than 0%.

In another test the test system is LOX IMVI. The test is described as follows: NCI-60 single-dose screen. As to conditions: Homo sapiens, single dose 10 µM, '-' = no inhibition, read-out: % Growth Inhibition. In kind it is cell-based. Summed up:
as §1
In the case of `COc1ccc(-c2cc(-c3ccc(Cl)cc3)nc(SCc3ccccc3)n2)cc1` [Compound 14, 2-(Benzylthio)-4-(4-chlorophenyl)-6-(4-methoxyphenyl)pyrimidine], the inhibition at 10 µM turned out to be 3.14%.

Another test deals with IGROV1. The test is described as follows: NCI-60 single-dose screen. As to conditions: Homo sapiens, IGROV-1, single dose 10 µM, '-' = no inhibition, read-out: % Growth Inhibition. In kind it is cell-based. Summed up:
as §1
For the compound `COc1ccc(-c2cc(-c3ccc(Cl)cc3)nc(SCc3ccccc3)n2)cc1` [Compound 14, 2-(Benzylthio)-4-(4-chlorophenyl)-6-(4-methoxyphenyl)pyrimidine], the inhibition at 10 µM is less than 0%.

The subject of a further test is NCI-H522. The experiment in a line: NCI-60 single-dose screen. In kind it is cell-based. To be noted: Homo sapiens, single dose 10 µM, '-' = no inhibition, read-out: % Growth Inhibition. Summed up: as §1
Turning to `COc1ccc(-c2cc(-c3ccc(Cl)cc3)nc(SCc3ccccc3)n2)cc1` [Compound 14, 2-(Benzylthio)-4-(4-chlorophenyl)-6-(4-methoxyphenyl)pyrimidine], the inhibition at 10 µM is less than 0%.

Another test relates to ACHN 1. The test is described as follows: NCI-60 single-dose screen. As to conditions: Homo sapiens, single dose 10 µM, '-' = no inhibition, read-out: % Growth Inhibition. The class given is cell-based. Summed up:
as §1
With `COc1ccc(-c2cc(-c3ccc(Cl)cc3)nc(SCc3ccccc3)n2)cc1` [Compound 14, 2-(Benzylthio)-4-(4-chlorophenyl)-6-(4-methoxyphenyl)pyrimidine], the inhibition at 10 µM came to 11%.

The subject of the next test is 786-0. The test is described as follows: NCI-60 single-dose screen. The class given is cell-based. As to conditions: Homo sapiens, single dose 10 µM, '-' = no inhibition, read-out: % Growth Inhibition. Summed up: as §1
With `COc1ccc(-c2cc(-c3ccc(Cl)cc3)nc(SCc3ccccc3)n2)cc1` [Compound 14, 2-(Benzylthio)-4-(4-chlorophenyl)-6-(4-methoxyphenyl)pyrimidine], the inhibition at 10 µM is less than 0%.

The next test has as its system MDA-MB-468. The test is described as follows: NCI-60 single-dose screen. The class given is cell-based. To be noted: Homo sapiens, single dose 10 µM, '-' = no inhibition, read-out: % Growth Inhibition. The procedure, abridged:
as §1
As for `COc1ccc(-c2cc(-c3ccc(Cl)cc3)nc(SCc3ccccc3)n2)cc1` [Compound 14, 2-(Benzylthio)-4-(4-chlorophenyl)-6-(4-methoxyphenyl)pyrimidine], the inhibition at 10 µM is less than 0%.

The next test relates to HCT-15. The experiment in a line: NCI-60 single-dose screen. In kind it is cell-based. To be noted: Homo sapiens, single dose 10 µM, '-' = no inhibition, read-out: % Growth Inhibition. The procedure, abridged: as §1
In the case of `COc1ccc(-c2cc(-c3ccc(Cl)cc3)nc(SCc3ccccc3)n2)cc1` [Compound 14, 2-(Benzylthio)-4-(4-chlorophenyl)-6-(4-methoxyphenyl)pyrimidine], the inhibition at 10 µM turned out to be 4.95%.

Another test has as its system A549/ATCC. The test is described as follows: NCI-60 single-dose screen. In kind it is cell-based. As to conditions: Homo sapiens, single dose 10 µM, '-' = no inhibition, read-out: % Growth Inhibition. The procedure, abridged:
as §1
Take `COc1ccc(-c2cc(-c3ccc(Cl)cc3)nc(SCc3ccccc3)n2)cc1` [Compound 14, 2-(Benzylthio)-4-(4-chlorophenyl)-6-(4-methoxyphenyl)pyrimidine]: the inhibition at 10 µM came out at 2.08%.

In the next test the test system is CCRF-CEM. The experiment in a line: NCI-60 single-dose screen. In kind it is cell-based. To be noted: Homo sapiens, single dose 10 µM, '-' = no inhibition, read-out: % Growth Inhibition. The procedure, abridged: as §1
`COc1ccc(-c2cc(-c3ccc(Cl)cc3)nc(SCc3ccccc3)n2)cc1` [Compound 14, 2-(Benzylthio)-4-(4-chlorophenyl)-6-(4-methoxyphenyl)pyrimidine]: the inhibition at 10 µM was less than 0%.

A further test has as its system SF-539. The experiment in a line: NCI-60 single-dose screen. In kind it is cell-based. As to conditions: Homo sapiens, single dose 10 µM, '-' = no inhibition, read-out: % Growth Inhibition. The procedure, abridged:
as §1
`COc1ccc(-c2cc(-c3ccc(Cl)cc3)nc(SCc3ccccc3)n2)cc1` [Compound 14, 2-(Benzylthio)-4-(4-chlorophenyl)-6-(4-methoxyphenyl)pyrimidine]: the inhibition at 10 µM is less than 0%.

For the next test, the system named is SK-OV-3. The test is described as follows: NCI-60 single-dose screen. In kind it is cell-based. To be noted: Homo sapiens, single dose 10 µM, '-' = no inhibition, read-out: % Growth Inhibition. Summed up: as §1
Take `COc1ccc(-c2cc(-c3ccc(Cl)cc3)nc(SCc3ccccc3)n2)cc1` [Compound 14, 2-(Benzylthio)-4-(4-chlorophenyl)-6-(4-methoxyphenyl)pyrimidine]: the inhibition at 10 µM is less than 0%.

The test system of a further test is OVCAR-5. The experiment in a line: NCI-60 single-dose screen. As to conditions: Homo sapiens, single dose 10 µM, '-' = no inhibition, read-out: % Growth Inhibition. The class given is cell-based. Summed up:
as §1
Regarding `COc1ccc(-c2cc(-c3ccc(Cl)cc3)nc(SCc3ccccc3)n2)cc1` [Compound 14, 2-(Benzylthio)-4-(4-chlorophenyl)-6-(4-methoxyphenyl)pyrimidine], the inhibition at 10 µM was determined as 2.5%.

A further test deals with NCI/ADR-RES. The test is described as follows: NCI-60 single-dose screen. In kind it is cell-based. To be noted: Homo sapiens, single dose 10 µM, '-' = no inhibition, read-out: % Growth Inhibition. The procedure, abridged:
as §1
Consider `COc1ccc(-c2cc(-c3ccc(Cl)cc3)nc(SCc3ccccc3)n2)cc1` [Compound 14, 2-(Benzylthio)-4-(4-chlorophenyl)-6-(4-methoxyphenyl)pyrimidine], for which the inhibition at 10 µM is less than 0%.

The next test relates to T-47D. The experiment in a line: NCI-60 single-dose screen. The class given is cell-based. To be noted: Homo sapiens, T47D, single dose 10 µM, '-' = no inhibition, read-out: % Growth Inhibition. The procedure, abridged: as §1
On to `COc1ccc(-c2cc(-c3ccc(Cl)cc3)nc(SCc3ccccc3)n2)cc1` [Compound 14, 2-(Benzylthio)-4-(4-chlorophenyl)-6-(4-methoxyphenyl)pyrimidine], for which the inhibition at 10 µM amounted to 14.4%.

In another test the test system is EKVX. The experiment in a line: NCI-60 single-dose screen. In kind it is cell-based. As to conditions: Homo sapiens, single dose 10 µM, '-' = no inhibition, read-out: % Growth Inhibition. Summed up:
as §1
`COc1ccc(-c2cc(-c3ccc(Cl)cc3)nc(SCc3ccccc3)n2)cc1` [Compound 14, 2-(Benzylthio)-4-(4-chlorophenyl)-6-(4-methoxyphenyl)pyrimidine]: the inhibition at 10 µM was determined as 2.76%.

Another test concerns A498. The test is described as follows: NCI-60 single-dose screen. The class given is cell-based. As to conditions: Homo sapiens, single dose 10 µM, '-' = no inhibition, read-out: % Growth Inhibition. The procedure, abridged: as §1
With `COc1ccc(-c2cc(-c3ccc(Cl)cc3)nc(SCc3ccccc3)n2)cc1` [Compound 14, 2-(Benzylthio)-4-(4-chlorophenyl)-6-(4-methoxyphenyl)pyrimidine], the inhibition at 10 µM is less than 0%.

The test system of the next test is UACC-257. The experiment in a line: NCI-60 single-dose screen. In kind it is cell-based. As to conditions: Homo sapiens, single dose 10 µM, '-' = no inhibition, read-out: % Growth Inhibition. Summed up:
as §1
Turning to `COc1ccc(-c2cc(-c3ccc(Cl)cc3)nc(SCc3ccccc3)n2)cc1` [Compound 14, 2-(Benzylthio)-4-(4-chlorophenyl)-6-(4-methoxyphenyl)pyrimidine], the inhibition at 10 µM was less than 0%.

Another test has as its system HOP-62. The test is described as follows: NCI-60 single-dose screen. The class given is cell-based. As to conditions: Homo sapiens, single dose 10 µM, '-' = no inhibition, read-out: % Growth Inhibition. The procedure, abridged:
as §1
Regarding `COc1ccc(-c2cc(-c3ccc(Cl)cc3)nc(SCc3ccccc3)n2)cc1` [Compound 14, 2-(Benzylthio)-4-(4-chlorophenyl)-6-(4-methoxyphenyl)pyrimidine], the inhibition at 10 µM was less than 0%.

The subject of a further test is RPMI-8226. The experiment in a line: NCI-60 single-dose screen. The class given is cell-based. To be noted: Homo sapiens, single dose 10 µM, '-' = no inhibition, read-out: % Growth Inhibition. The procedure, abridged: as §1
On to `COc1ccc(-c2cc(-c3ccc(Cl)cc3)nc(SCc3ccccc3)n2)cc1` [Compound 14, 2-(Benzylthio)-4-(4-chlorophenyl)-6-(4-methoxyphenyl)pyrimidine], for which the inhibition at 10 µM was less than 0%.
